Holding throughout (type): biochemical
For one assay, the target named is T1, Human Calpain 1/NS1 (Homo sapiens, UniProt P07384).
T1 sequence (P07384 1-714): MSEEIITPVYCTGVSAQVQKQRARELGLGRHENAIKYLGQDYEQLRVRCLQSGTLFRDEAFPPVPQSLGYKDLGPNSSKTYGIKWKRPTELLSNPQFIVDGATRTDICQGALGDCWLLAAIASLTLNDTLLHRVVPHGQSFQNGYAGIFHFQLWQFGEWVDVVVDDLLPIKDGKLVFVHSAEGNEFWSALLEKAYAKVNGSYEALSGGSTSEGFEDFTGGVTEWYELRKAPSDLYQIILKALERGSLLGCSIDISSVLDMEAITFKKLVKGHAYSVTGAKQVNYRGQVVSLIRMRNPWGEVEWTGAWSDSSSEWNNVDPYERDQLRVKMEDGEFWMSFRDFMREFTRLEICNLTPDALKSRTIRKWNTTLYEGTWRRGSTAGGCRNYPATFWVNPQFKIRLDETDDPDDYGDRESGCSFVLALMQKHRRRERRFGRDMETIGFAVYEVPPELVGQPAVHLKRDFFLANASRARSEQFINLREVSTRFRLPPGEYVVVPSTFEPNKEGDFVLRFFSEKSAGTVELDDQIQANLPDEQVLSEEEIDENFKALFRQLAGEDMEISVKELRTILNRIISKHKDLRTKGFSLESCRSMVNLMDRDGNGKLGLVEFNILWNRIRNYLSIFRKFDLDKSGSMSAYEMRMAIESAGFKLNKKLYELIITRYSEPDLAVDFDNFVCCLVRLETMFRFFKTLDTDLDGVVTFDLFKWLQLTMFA
T1 sequence (P04632 1-268 partner): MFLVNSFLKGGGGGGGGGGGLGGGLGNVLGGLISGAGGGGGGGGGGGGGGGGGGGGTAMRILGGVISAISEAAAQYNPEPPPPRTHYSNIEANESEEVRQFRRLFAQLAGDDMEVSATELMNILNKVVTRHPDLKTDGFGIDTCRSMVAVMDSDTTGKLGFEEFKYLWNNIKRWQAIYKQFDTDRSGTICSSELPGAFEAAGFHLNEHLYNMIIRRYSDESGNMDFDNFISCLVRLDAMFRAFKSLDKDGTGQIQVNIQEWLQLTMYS
The assay can be described thus: Calpain inhibition continuous fluorescence (FRET) assay, Human Calpain 1/NS1. The following applies: Column A; read-out: Human Calpain 1/NS1 IC50. Summed up: (§1)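 Continuous FRET read (ex 490/em 520 nm, 10 min) of calpain 1, 2 or 9 cleaving an internally quenched 5-FAM peptide, triggered by substrate with CaCl2 after enzyme–inhibitor incubation at ambient 25 °C, pH 7.5 Tris/NaCl/DTT buffer. IC50 from initial rates (1-5 min) via 4-parameter fit.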

The target in the next assay is T2, Human Calpain 2/NS1 (Homo sapiens, UniProt P17655).
T2 sequence (P17655 1-700): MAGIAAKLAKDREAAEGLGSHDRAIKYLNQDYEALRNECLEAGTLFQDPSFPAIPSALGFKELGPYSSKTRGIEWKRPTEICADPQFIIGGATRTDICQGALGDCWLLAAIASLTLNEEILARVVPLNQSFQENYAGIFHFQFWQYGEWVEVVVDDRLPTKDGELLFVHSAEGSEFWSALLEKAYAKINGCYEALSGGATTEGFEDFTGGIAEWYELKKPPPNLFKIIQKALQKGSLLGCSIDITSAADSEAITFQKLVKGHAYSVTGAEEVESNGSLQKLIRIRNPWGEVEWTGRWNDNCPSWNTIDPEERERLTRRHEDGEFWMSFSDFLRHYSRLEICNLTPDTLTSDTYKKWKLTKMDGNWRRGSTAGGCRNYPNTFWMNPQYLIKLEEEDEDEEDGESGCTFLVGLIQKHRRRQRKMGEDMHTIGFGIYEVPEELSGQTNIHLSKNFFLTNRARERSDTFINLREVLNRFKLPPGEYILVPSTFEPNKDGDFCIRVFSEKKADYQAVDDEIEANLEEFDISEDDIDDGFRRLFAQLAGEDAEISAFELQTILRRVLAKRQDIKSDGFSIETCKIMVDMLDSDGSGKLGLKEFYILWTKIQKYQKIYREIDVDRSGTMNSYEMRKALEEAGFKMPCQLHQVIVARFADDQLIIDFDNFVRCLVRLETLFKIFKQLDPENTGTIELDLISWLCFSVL
T2 sequence (P04632 1-268 partner): T1 sequence (P04632 1-268 partner)
The assay can be described thus: Calpain inhibition continuous fluorescence (FRET) assay, Human Calpain 2/NS1. The following applies: Column B; read-out: Human Calpain 2/NS1 IC50. In outline:
as §1

The target in a further assay is T3, Human Calpain 9/NS1 (Homo sapiens, UniProt O14815).
T3 sequence (O14815 1-690): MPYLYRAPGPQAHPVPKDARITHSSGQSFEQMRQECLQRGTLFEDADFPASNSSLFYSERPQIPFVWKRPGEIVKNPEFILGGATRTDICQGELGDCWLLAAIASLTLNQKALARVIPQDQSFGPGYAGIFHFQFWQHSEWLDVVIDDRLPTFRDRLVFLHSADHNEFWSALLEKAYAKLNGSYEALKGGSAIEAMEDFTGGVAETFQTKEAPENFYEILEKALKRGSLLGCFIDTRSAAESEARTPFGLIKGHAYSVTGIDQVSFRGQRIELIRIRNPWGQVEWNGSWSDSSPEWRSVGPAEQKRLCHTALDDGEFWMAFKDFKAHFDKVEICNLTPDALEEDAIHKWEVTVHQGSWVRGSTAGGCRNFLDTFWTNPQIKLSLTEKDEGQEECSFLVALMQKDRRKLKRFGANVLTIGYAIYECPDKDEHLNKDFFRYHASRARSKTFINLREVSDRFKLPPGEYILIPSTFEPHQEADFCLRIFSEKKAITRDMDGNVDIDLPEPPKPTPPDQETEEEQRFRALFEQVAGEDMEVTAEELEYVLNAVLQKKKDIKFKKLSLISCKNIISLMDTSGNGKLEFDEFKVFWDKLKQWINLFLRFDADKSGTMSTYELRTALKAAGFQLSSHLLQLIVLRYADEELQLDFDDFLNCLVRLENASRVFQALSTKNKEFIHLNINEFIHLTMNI
T3 sequence (P04632 1-268 partner): T1 sequence (P04632 1-268 partner)
The assay can be described thus: Calpain inhibition continuous fluorescence (FRET) assay, Human Calpain 9/NS1. The following applies: Column C; read-out: Human Calpain 9/NS1 IC50. In outline:
as §1

Each structure is given as a SMILES string. Some results are limits rather than exact numbers.

As for `CC(C)(C)c1cc(C(=O)N[C@@H](Cc2ccccc2)C(=O)C(N)=O)n(-c2ccccc2)n1` [Compound 128, (S)—N-(4-amino-3,4-dioxo-1-phenylbutan-2-yl)-3-(tert-butyl)-1-phenyl-1H-pyrazole-5-carboxamide], the results for the IC50 at Human Calpain 1/NS1, at Human Calpain 2/NS1 and at Human Calpain 9/NS1 were 3 to 10 µM, more than 10 µM and 3 to 10 µM, respectively.
Regarding `NC(=O)C(=O)[C@H](Cc1ccccc1)NC(=O)c1[nH]ncc1-c1ccccc1` [Compound 129, (S)—N-(4-amino-3,4-dioxo-1-phenylbutan-2-yl)-4-phenyl-1H-pyrazole-5-carboxamide], the IC50 on Human Calpain 1/NS1 is 3 to 10 µM; at Human Calpain 2/NS1, more than 10 µM; on Human Calpain 9/NS1, 3 to 10 µM.
Regarding `Cc1cc(C(=O)N[C@@H](Cc2ccccc2)C(=O)C(=O)NC2CC2)n(-c2cccnc2)n1` [Compound 132, (S)—N-(4-(cyclopropylamino)-3,4-dioxo-1-phenylbutan-2-yl)-3-methyl-1-(pyridin-3-yl)-1H-pyrazole-5-carboxamide], the IC50 on Human Calpain 1/NS1, at Human Calpain 2/NS1 and at Human Calpain 9/NS1 was less than 3 µM each time.
In the case of `Cc1cc(C(=O)N[C@@H](Cc2ccccc2)C(=O)C(N)=O)n(-c2cncc3ccccc23)n1` [Compound 133, (S)—N-(4-amino-3,4-dioxo-1-phenylbutan-2-yl)-1-(isoquinolin-4-yl)-3-methyl-1H-pyrazole-5-carboxamide], the IC50 on Human Calpain 1/NS1, on Human Calpain 2/NS1 and at Human Calpain 9/NS1 was less than 3 µM in each case.
Take `Cc1cc(C(=O)N[C@@H](Cc2ccccc2)C(=O)C(=O)NC2CC2)n(-c2cncc3ccccc23)n1` [Compound 134, (S)—N-(4-(cyclopropylamino)-3,4-dioxo-1-phenylbutan-2-yl)-1-(isoquinolin-4-yl)-3-methyl-1H-pyrazole-5-carboxamide]: the IC50 at Human Calpain 1/NS1, on Human Calpain 2/NS1 and on Human Calpain 9/NS1 was 3 to 10 µM throughout.
Consider `O=C(NC1CC1)C(=O)[C@H](Cc1ccccc1)NC(=O)c1sc(C2CC2)nc1-c1ccccc1` [Compound 135, (S)-2-cyclopropyl-N-(4-(cyclopropylamino)-3,4-dioxo-1-phenylbutan-2-yl)-4-phenylthiazole-5-carboxamide], for which the IC50 is less than 3 µM at Human Calpain 1/NS1, less than 3 µM at Human Calpain 2/NS1 and more than 10 µM at Human Calpain 9/NS1.
On to `CC(C)(C)c1cc(C(=O)N[C@@H](Cc2ccccc2)C(=O)C(=O)NC2CC2)n(-c2ccccc2)n1` [Compound 137, (S)-3-(tert-butyl)-N-(4-(cyclopropylamino)-3,4-dioxo-1-phenylbutan-2-yl)-1-phenyl-1H-pyrazole-5-carboxamide], for which the IC50 on Human Calpain 1/NS1, at Human Calpain 2/NS1 and at Human Calpain 9/NS1 was more than 10 µM in each case.
Take `Cc1cc(C(=O)N[C@@H](Cc2ccccc2)C(=O)C(N)=O)n(-c2cncnc2)n1` [Compound 138, (S)—N-(4-amino-3,4-dioxo-1-phenylbutan-2-yl)-3-methyl-1-(pyrimidin-5-yl)-1H-pyrazole-5-carboxamide]: the IC50 on Human Calpain 1/NS1, on Human Calpain 2/NS1 and at Human Calpain 9/NS1 was less than 3 µM throughout.
`Cc1noc(-n2cc3ccccc3n2)c1C(=O)N[C@@H](Cc1ccccc1)C(=O)C(N)=O` [Compound 139, (S)—N-(4-amino-3,4-dioxo-1-phenylbutan-2-yl)-5-(2H-indazol-2-yl)-3-methylisoxazole-4-carboxamide]: the IC50 at Human Calpain 1/NS1, on Human Calpain 2/NS1 and on Human Calpain 9/NS1 was less than 3 µM in each case.
`NC(=O)C(=O)[C@H](Cc1ccccc1)NC(=O)c1ncoc1-c1ccccc1` [Compound 148, (S)—N-(4-amino-3,4-dioxo-1-phenylbutan-2-yl)-5-phenyloxazole-4-carboxamide]: the IC50 on Human Calpain 1/NS1, on Human Calpain 2/NS1 and at Human Calpain 9/NS1 was less than 3 µM each time.

For the origin of these results see patent publication US11339130B1 (Blade Therapeutics, Inc., priority 2016, dated 2022).
